Laboratory results published in the NIST ThermoML archive (doi:10.1021/je700140j).
± gives the expanded uncertainty stated by the source.

How the values were obtained:
[1] = for surface tension liquid-gas: Ring tensiometer; for mass density / viscosity: 100.8 kPa, Liquid
[2] = refractive index (Na D-line) (dimensionless); conditions: 101.33 kPa, Liquid, Standard Abbe refractometry
[3] = xn = mol fraction of the nth substance listed; conditions: x1 = 1; for surface tension liquid-gas: Ring tensiometer; for mass density / viscosity: 100.8 kPa, Liquid
[4] = refractive index (Na D-line) (dimensionless); xn = mol fraction of the nth substance listed; conditions: 100.8 kPa, Liquid, Standard Abbe refractometry, x1 = 1

SMILES | surface tension liquid-gas ([1]; 298.15 K) | mass density ([1]; 298.15 K) | viscosity ([1]; 298.15 K) | surface tension liquid-gas ([1]; 308.15 K) | mass density ([1]; 308.15 K) | viscosity ([1]; 308.15 K) | surface tension liquid-gas ([1]; 318.15 K) | mass density ([1]; 318.15 K) | viscosity ([1]; 318.15 K) | refractive index ([2]; 298.15 K) | refractive index ([2]; 308.15 K) | refractive index ([2]; 318.15 K) | surface tension liquid-gas ([3]; 298.15 K) | mass density ([3]; 298.15 K) | viscosity ([3]; 298.15 K) | surface tension liquid-gas ([3]; 308.15 K) | mass density ([3]; 308.15 K) | viscosity ([3]; 308.15 K) | surface tension liquid-gas ([3]; 318.15 K) | mass density ([3]; 318.15 K) | further results
OCCc1ccccc1 [2-phenylethanol] | 39.43 ± 0.58 mN/m | 1016.2 ± 0.39 kg/m3 | 11.4 ± 0.14 mPa·s | 38.93 ± 0.57 mN/m | 1008.63 ± 0.37 kg/m3 | 7.518 ± 0.098 mPa·s | 38.35 ± 0.56 mN/m | 1000.98 ± 0.36 kg/m3 | 5.232 ± 0.071 mPa·s | 1.53269 ± 0.00037 | 1.52852 ± 0.00037 | 1.52427 ± 0.00037 | – | – | – | – | – | – | – | – | –
OCc1ccccc1 [benzenemethanol] | 38.63 ± 0.54 mN/m | 1041.4 ± 0.29 kg/m3 | 5.555 ± 0.071 mPa·s | 37.73 ± 0.53 mN/m | 1033.6 ± 0.27 kg/m3 | 4.093 ± 0.054 mPa·s | 36.75 ± 0.52 mN/m | 1025.72 ± 0.26 kg/m3 | 3.12 ± 0.041 mPa·s | 1.53843 ± 0.00033 | 1.53421 ± 0.00033 | 1.52994 ± 0.00033 | – | – | – | – | – | – | – | – | –
OCc1ccccc1 [benzenemethanol] + OCCc1ccccc1 | – | – | – | – | – | – | – | – | – | – | – | – | 38.63 ± 0.54 mN/m | 1041.4 ± 0.29 kg/m3 | 5.555 ± 0.071 mPa·s | 37.73 ± 0.53 mN/m | 1033.6 ± 0.27 kg/m3 | 4.093 ± 0.054 mPa·s | 36.75 ± 0.52 mN/m | 1025.72 ± 0.26 kg/m3 | viscosity ([3]; 318.15 K): 3.12 ± 0.041 mPa·s; refractive index ([4]; 298.15 K): 1.53843 ± 0.00033; refractive index ([4]; 308.15 K): 1.53421 ± 0.00033; refractive index ([4]; 318.15 K): 1.52994 ± 0.00033
CC(C)O [propan-2-ol] | 20.85 ± 0.32 mN/m | 781.17 ± 0.61 kg/m3 | 2.082 ± 0.028 mPa·s | 20.05 ± 0.31 mN/m | 772.53 ± 0.63 kg/m3 | 1.55 ± 0.021 mPa·s | 19.35 ± 0.31 mN/m | 763.52 ± 0.65 kg/m3 | 1.181 ± 0.016 mPa·s | 1.37507 ± 0.00033 | 1.37063 ± 0.00033 | 1.3661 ± 0.00033 | – | – | – | – | – | – | – | – | –
CC(C)O [propan-2-ol] + OCCc1ccccc1 | – | – | – | – | – | – | – | – | – | – | – | – | 20.85 ± 0.32 mN/m | 781.17 ± 0.61 kg/m3 | 2.082 ± 0.028 mPa·s | 20.05 ± 0.31 mN/m | 772.53 ± 0.63 kg/m3 | 1.55 ± 0.021 mPa·s | 19.35 ± 0.31 mN/m | 763.52 ± 0.65 kg/m3 | viscosity ([3]; 318.15 K): 1.181 ± 0.016 mPa·s; refractive index ([4]; 298.15 K): 1.37507 ± 0.00033; refractive index ([4]; 308.15 K): 1.37063 ± 0.00033; refractive index ([4]; 318.15 K): 1.3661 ± 0.00033
CC(C)O [propan-2-ol] + OCc1ccccc1 | – | – | – | – | – | – | – | – | – | – | – | – | 20.85 ± 0.32 mN/m | 781.17 ± 0.61 kg/m3 | 2.082 ± 0.028 mPa·s | 20.05 ± 0.31 mN/m | 772.53 ± 0.63 kg/m3 | 1.55 ± 0.021 mPa·s | 19.35 ± 0.31 mN/m | 763.52 ± 0.65 kg/m3 | viscosity ([3]; 318.15 K): 1.181 ± 0.016 mPa·s; refractive index ([4]; 298.15 K): 1.37507 ± 0.00033; refractive index ([4]; 308.15 K): 1.37063 ± 0.00033; refractive index ([4]; 318.15 K): 1.3661 ± 0.00033
